Experimental data: US5807827A, “Des-Tyr dynorphin analogues” (Des-Tyr Dynorphin Partnership, priority 1997, dated 1998)
Ends that are not written are not given here.

Assays:
[1] = system: naive, unaddicted (that is, normal) animals; assay: Tail-flick antinociceptive activity of morphine in naive animals; format: in vivo, mice; conditions: control 1: naive, no peptide
Procedure: (§1) Analgesia was measured by the tail-flick method of D'Amour and Smith, J. Pharmac. Exp. Ther. , 72, pp. 74-79 (1941), incorporated herein by reference, as modified by Tulunay and Takemori, J. Pharmac. Exp. Ther., 190, pp. 395-400 (1974), incorporated herein by reference. For ED50 (e.g., effective does for 50% of the test group) determinations, the animals' responses were made quantal by establishing an endpoint which represented a significant increase in reaction time. The endpoint was an increase in reaction time of an individual animal of greater than 3 SD (e.g., standard deviation) of the control mean reaction time for all animals used in the assay. The usual control mean reaction time was 3.1±0.05 sec. Nonresponding animals were removed from the heat stimulus when reaction time exceeded 10 sec. to avoid tail damage.
(§2) Drugs were injected 30 minutes prior to testing, unless otherwise indicated. Morphine was injected subcutaneously (s.c.) whereas the peptides were injected (i.v.) in […] saline.
(§3) Morphine tolerance was established by implanting morphine pellets, 75 mg base, subcutaneously by the method of Way et al., J. Pharmac. Exp. Ther., 167, pp. 1-8 (1969), incorporated herein by reference. The drug used was morphine sulfate (Mallinckrodt Chemical Works, St. Louis, Mo.). […]

[2] = system: morphine tolerant (that is, addicted) mice; assay: Tail-flick antinociceptive activity of morphine in morphine tolerant animals; format: in vivo; conditions: control 2: addicted animals, no peptide
Procedure: as §1, §2, §3

[3] = system: morphine tolerant (addicted) animals; assay: Naloxone-precipitated narcotic withdrawal (withdrawal jumping) in morphine pellet-implanted animals; format: in vivo, mice
Procedure: Morphine tolerance was established by implanting morphine pellets, 75 mg base, subcutaneously by the method of Way et al., J. Pharmac. Exp. Ther., 167, pp. 1-8 (1969), incorporated herein by reference. The drug used was morphine sulfate (Mallinckrodt Chemical Works, St. Louis, Mo.). The ED50 values, their 95% confidence limits and significance of the potency ratio between two ED50. values were determined by the method of Litchfield and Wilcoxon, J. Pharmac. Exp. Ther., 96, 99-113 (1949), incorporated herein by reference.
The morphine tolerant (addicted) animals had pellets implanted for three days. The animals were then challenged with naloxone doses (while the morphine pellet remained in place). […] Table 1 summarizes the data for the control animals and for groups of animals treated with three different peptides. Each peptide was in a dose of 5 μmol/kg i.v. before administration of the naloxone.
However, when any of the three peptides shown in Table 1 was administered five minutes before administration of the naloxone, then much more naloxone was needed to precipitate the animal into a state of narcotic withdrawal. This means that each of the three peptides shown in Table 1 caused the addicted animal to be not as dependent on morphine as it would be without such pretreatment.
The animals and test procedures used were analogous to those described in Example 1. […]

opioid receptor = conditions: cited from earlier work
[4] = system: macrophage-colony stimulating factor; conditions: mice treated with chronic morphine; cited from earlier work
[5] = system: hosts tolerant to narcotic analgesic; conditions: cited from earlier work

CN1CC[C@]23c4c5ccc(O)c4O[C@H]2[C@@H](O)C=C[C@H]3[C@H]1C5 [Morphine, morphine]
Morphine ED50 [1]: 6.5 (5.0-8.9) μmol/kg s.c. | Tolerance Index ([2]; relative to naive control): 8.5 (5.7-12.--) | Morphine ED50 ([2]; tail flick): 55.6 (42.6-73.5) μmol/kg s.c.

C=CCN1CC[C@]23c4c5ccc(O)c4O[C@H]2C(=O)CC[C@@]3(O)[C@H]1C5 [Naloxone, naloxone]
ED50 ([3]; Mus musculus, control addicted animals, no peptide (base line)): 79 µmol/kg

GFLRRIRPKLK [Dyn (3-13), Gly-Phe-Leu-Arg-Arg-Ile-Arg-Pro-Lys-Leu-Lys]
Observed behaviour of treated animals ([3]; Example 3): lethargic and exhibited partial paralysis of their hind quarters

Gly-Gly-Phe-Leu-Arg-Arg-Ile-Arg-Pro-Lys-Leu-Lys [des-Tyr Dyn A (1-13)]
Competition in assays with various ligands (opioid receptor): did not compete at all

Tyr-Gly-Gly-Phe-Leu-Arg-Arg-Ile-Arg-Pro (YGGFLRRIRP-NH2) [SEQ ID NO:3]
Block of opioid inhibition of macrophage-colony stimulating factor [4]: block the opioid inhibition of macrophage-colony stimulating factor of morphine in a dose-dependent manner

Tyr-Gly-Gly-Phe-Leu-Arg-Arg-Ile-Arg-Pro-Lys-Leu-Lys (YGGFLRRIRPKLK) [SEQ ID NO:2]
Block of opioid inhibition of macrophage-colony stimulating factor [4]: block the opioid inhibition of macrophage-colony stimulating factor of morphine in a dose-dependent manner | Effect on analgesic effect of narcotic analgesic [5]: potentiates the analgesic effect in tolerant hosts
